What was measured:
[1] = biological target: T1, human neurokinin 1 (NK1) receptor (Homo sapiens, UniProt P25103); experiment: Neurokinin receptor binding assay, NK1 ([3H]-Substance P, CHO membranes); conditions: for Ki: racemic compounds except specifically defined enantiomers
T1 construct: expressed in transfected cells; host or cells: Chinese Hamster ovary (CHO) cells
Method: (§1) Chinese Hamster ovary (CHO) cells transfected with the coding regions for the human neurokinin 1 (NK1) of the human neurokinin 2 (NK2) receptors are grown in Dulbecco's minimal essential medium supplemented with 10% fetal calf serum, 0.1 mM non-essential amino acids, 2 mM glutamine, 100 units/ml of penicillin and streptomycin, and 0.8 mg of G418/ml at 37° C. in a humidified atmosphere containing 5% CO2.
(§2) Cells are harvested by centrifugation and washed in RPMI media at […] for 5 minutes. The pellet is resuspended inTris-HCl (pH7.4) containing 1 uM phosphoramidon and 4 ug/ml of chymostatin at a cell density of 30×10^6 cells/ml. The suspension is then homogenized in a Brinkman Polytron (setting 5) for 30-45 seconds. The homogenate is centrifuged at 800×g for 5 min at 4° C. to collect unbroken cells and nuclei. The supematant is centrifuged in a Sorvall RC5C at 19,000 rpm ([…]) for 30 min at 4° C. The pellet is resuspended, an aliquot is removed for a protein determination (BCA) and washed again. The resulting pellet is stored at -80° C.
(§3) Binding is initiated by the addition of 100 μl of membrane (10-20 μg) containing the human NK-1 or NK-2 receptor in a final volume of 200 μl. After 40 minutes at room temperature, the reaction is stopped by rapid filtration onto Whatman GF/C filters which have been presoaked in 0.3% polyethylenimine. Filters are washed 2 times with 3 ml of 50 mM Tris-HCl (pH7.4).

[2] = biological target: T2, human neurokinin 2 (NK2) receptor (Homo sapiens, UniProt P21452); experiment: Neurokinin receptor binding assay, NK2 ([3H]-Neurokinin A, CHO membranes); conditions: for Ki: racemic compounds except specifically defined enantiomers
T2 construct: expressed in transfected cells; host or cells: Chinese Hamster ovary (CHO) cells
T2 sequence (P21452 1-398): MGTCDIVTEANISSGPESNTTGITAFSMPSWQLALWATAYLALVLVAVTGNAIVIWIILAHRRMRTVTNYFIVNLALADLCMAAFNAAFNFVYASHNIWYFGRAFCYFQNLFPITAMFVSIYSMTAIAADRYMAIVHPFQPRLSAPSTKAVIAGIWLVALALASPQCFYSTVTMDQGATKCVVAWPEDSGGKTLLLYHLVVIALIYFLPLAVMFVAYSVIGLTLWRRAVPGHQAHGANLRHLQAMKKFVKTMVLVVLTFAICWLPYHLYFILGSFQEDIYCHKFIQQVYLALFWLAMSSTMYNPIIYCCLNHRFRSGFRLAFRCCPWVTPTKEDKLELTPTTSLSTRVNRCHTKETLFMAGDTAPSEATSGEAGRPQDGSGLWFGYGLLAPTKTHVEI
Method: as §1, §2, §3

NK3 = biological target: T3, NK3 (Homo sapiens, UniProt P29371); experiment: NK3 radioligand receptor binding assay as described in the literature; conditions: racemic compounds except specifically defined enantiomers
T3 sequence (P29371 1-465): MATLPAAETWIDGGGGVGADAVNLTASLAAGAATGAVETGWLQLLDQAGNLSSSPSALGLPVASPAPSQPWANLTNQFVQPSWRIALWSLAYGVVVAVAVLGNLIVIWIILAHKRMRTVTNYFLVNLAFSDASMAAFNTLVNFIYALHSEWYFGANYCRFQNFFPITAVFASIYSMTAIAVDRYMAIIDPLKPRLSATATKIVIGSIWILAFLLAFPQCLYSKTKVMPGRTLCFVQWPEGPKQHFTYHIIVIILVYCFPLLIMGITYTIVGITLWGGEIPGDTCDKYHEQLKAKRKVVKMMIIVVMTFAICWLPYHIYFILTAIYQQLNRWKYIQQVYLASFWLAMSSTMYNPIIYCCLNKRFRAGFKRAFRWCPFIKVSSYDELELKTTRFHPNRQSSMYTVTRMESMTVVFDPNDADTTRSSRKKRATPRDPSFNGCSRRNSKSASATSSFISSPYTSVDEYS

T1 sequence (P25103 whole entry): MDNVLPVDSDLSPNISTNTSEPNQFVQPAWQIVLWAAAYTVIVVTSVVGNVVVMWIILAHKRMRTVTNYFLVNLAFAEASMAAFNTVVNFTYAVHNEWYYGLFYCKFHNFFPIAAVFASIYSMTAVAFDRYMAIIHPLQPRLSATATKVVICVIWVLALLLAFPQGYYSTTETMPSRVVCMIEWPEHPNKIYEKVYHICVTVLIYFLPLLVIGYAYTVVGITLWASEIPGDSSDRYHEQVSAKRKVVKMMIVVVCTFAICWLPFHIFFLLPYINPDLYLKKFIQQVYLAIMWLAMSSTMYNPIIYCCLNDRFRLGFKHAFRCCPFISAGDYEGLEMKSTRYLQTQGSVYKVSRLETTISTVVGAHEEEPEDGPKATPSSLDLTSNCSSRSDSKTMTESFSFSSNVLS

| Ki [1] | Ki [2] | Ki (NK3) | inhibition at 1 µM [2] | inhibition at 1 µM [1] | SMILES |
| --- | --- | --- | --- | --- | --- |
| 63 nM | 68 nM |  |  |  | CC(C)(C)c1cc(C(=O)N2CCN(C(=O)CNC3CCN(Cc4ccccc4)CC3)C(c3ccc(Cl)c(Cl)c3)C2)cc(C(C)(C)C)c1 (stereo not drawn) |
|  |  | 433 nM |  |  | O=C(c1cc(C(F)(F)F)cc(C(F)(F)F)c1)N1CCN(C(=O)CNC2CCN(Cc3ccccc3)CC2)C(c2ccc(Cl)c(Cl)c2)C1 (stereo not drawn) |
| 93 nM | 3.4 nM |  |  |  | O=C(c1ccccc1)N1CCN(C(=O)CNC2CCN(Cc3ccccc3)CC2)C(c2ccc(Cl)c(Cl)c2)C1 (stereo not drawn) |
| 74 nM |  |  | 7% |  | CN(CC(=O)N1CCN(Cc2cc(C(F)(F)F)cc(C(F)(F)F)c2)CC1c1ccc(Cl)c(Cl)c1)C1CCN(Cc2ccccc2)CC1 (stereo not drawn) |
| 117 nM | 187 nM |  |  |  | O=C(C1c2ccccc2Oc2ccccc21)N1CCN(C(=O)CNC2CCN(Cc3ccccc3)CC2)C(c2ccc(Cl)c(Cl)c2)C1 (stereo not drawn) |
|  |  |  | 22% | 14% | O=C(c1cc(O)cc(O)c1)N1CCN(C(=O)CNC2CCN(Cc3ccccc3)CC2)C(c2ccc(Cl)c(Cl)c2)C1 (stereo not drawn) |
| 2.5 nM | 48 nM |  |  |  | COc1ccc(C2CN(C(=O)c3cc(C(F)(F)F)cc(C(F)(F)F)c3)CCN2C(=O)CNC2CCN(Cc3ccccc3)CC2)cc1 (stereo not drawn) |
| 0.58 nM | 93 nM |  |  |  | Cc1cc(C)cc(C(=O)N2CCN(C(=O)C[N+](C)(C)C3CCN(Cc4ccccc4)CC3)C(c3ccc(Cl)c(Cl)c3)C2)c1 (stereo not drawn) |
